Data as given in ChEMBL document CHEMBL1201862, “PubChem BioAssay data set” (2004).
Calls of active or inactive are those of the source. For most assays here, no stated cut-off is given here; in the data, active = EC50 of 10 µM or less and inactive = more.

Tests used:
Insulin-degrading enzyme [1] = molecular target: T1, Insulin-degrading enzyme (Homo sapiens, UniProt P14735); experiment: activators of recombinant IDE enzyme, dose response, counter-screen for IDE activator project, biochemical, fluorescence polarization (AID 588681)
T1 sequence (P14735 whole entry): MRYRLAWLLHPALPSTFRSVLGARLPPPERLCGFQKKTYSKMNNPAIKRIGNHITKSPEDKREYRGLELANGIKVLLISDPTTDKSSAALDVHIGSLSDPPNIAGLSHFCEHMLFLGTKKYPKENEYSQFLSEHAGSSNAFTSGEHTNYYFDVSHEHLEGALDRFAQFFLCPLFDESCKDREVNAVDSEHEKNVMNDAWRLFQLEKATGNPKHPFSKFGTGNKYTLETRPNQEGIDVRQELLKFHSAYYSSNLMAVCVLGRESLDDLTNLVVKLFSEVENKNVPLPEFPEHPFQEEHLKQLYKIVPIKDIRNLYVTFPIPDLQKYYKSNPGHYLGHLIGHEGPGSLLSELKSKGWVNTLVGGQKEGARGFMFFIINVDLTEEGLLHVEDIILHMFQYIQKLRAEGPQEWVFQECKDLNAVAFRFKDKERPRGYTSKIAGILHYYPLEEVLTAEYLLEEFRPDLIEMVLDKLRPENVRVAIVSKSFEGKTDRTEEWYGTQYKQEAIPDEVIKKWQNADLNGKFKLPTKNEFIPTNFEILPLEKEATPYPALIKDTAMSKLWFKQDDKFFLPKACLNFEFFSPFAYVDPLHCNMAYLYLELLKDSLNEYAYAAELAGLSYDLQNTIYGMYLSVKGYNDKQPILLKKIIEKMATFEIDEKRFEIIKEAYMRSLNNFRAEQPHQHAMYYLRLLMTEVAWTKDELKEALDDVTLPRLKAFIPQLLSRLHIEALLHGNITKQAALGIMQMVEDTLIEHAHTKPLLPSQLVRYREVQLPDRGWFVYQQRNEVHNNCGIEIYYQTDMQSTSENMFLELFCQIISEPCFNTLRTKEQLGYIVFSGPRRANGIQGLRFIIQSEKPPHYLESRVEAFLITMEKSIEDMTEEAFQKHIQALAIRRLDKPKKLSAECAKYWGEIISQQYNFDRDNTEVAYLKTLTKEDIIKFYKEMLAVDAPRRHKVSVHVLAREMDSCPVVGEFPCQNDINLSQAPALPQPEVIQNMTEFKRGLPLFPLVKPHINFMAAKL

Insulin-degrading enzyme [2] = molecular target: T1, Insulin-degrading enzyme; experiment: activators of endogenous IDE in HEK cells, dose response, cell-based, fluorescence polarization (AID 588439); format: functional
HEK293 [3] = experiment: HEK cell cytotoxicity by LDH release, dose response, cytotoxicity control for IDE activator project, fluorescence, HEK cells (AID 588440); format: functional, cell-based; conditions: Homo sapiens;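 further: cytotoxicity by LDH release measuring loss of membrane integrity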
HEK293 [4] = experiment: optical interference in Abeta FP readout, dose response, artefact control for IDE activator project, biochemical, fluorescence polarization (AID 588442); format: functional, cell-based; conditions: Homo sapiens

CCOC(=O)c1cccc(P(C)(C)=O)c1
inactive: EC50 (Insulin-degrading enzyme [1]) > 54.7 µM | EC50 (Insulin-degrading enzyme [2]) > 54.7 µM | IC50 (HEK293 [3]) > 89.1 µM | EC50 (HEK293 [4]) > 54.7 µM
